According to ChEMBL document CHEMBL3085687, “Gymnopalynes A and B, chloropropynyl-isocoumarin antibiotics from cultures of the basidiomycete Gymnopus sp” (J Nat Prod, 2013):
Values after ≈ are worked out from the molar mass of the structure shown. Active and inactive are the calls of the source. No cut-off for these calls is given here.

How the values were obtained:
[1] = test system: Chromobacterium violaceum; test: Antibacterial activity against Chromobacterium violaceum DSM 30191 assessed as growth inhibition; type: functional
Micrococcus luteus [2] = test: Antibacterial activity against Micrococcus luteus DSM 20030 assessed as growth inhibition; type: functional; settings: NCTC 2665
Nocardia sp. [3] = test: Antibacterial activity against Nocardia sp. DSM 43069 assessed as growth inhibition; type: functional
Escherichia coli [4] = test: Antibacterial activity against Escherichia coli DSM 1116 assessed as growth inhibition; type: functional
Staphylococcus aureus [5] = test: Antibacterial activity against Staphylococcus aureus DSM 346 assessed as growth inhibition; type: functional
[6] = test system: Mycolicibacterium diernhoferi; test: Antibacterial activity against Mycobacterium diernhoferi DSM 43524 assessed as growth inhibition; type: functional
Pimelobacter simplex [7] = test: Antibacterial activity against Nocardioides simplex DSM 20130 assessed as growth inhibition; type: functional
Paenibacillus polymyxa [8] = test: Antibacterial activity against Paenibacillus polymyxa DSM 36 assessed as growth inhibition; type: functional
Pseudomonas aeruginosa [9] = test: Antibacterial activity against Pseudomonas aeruginosa DSM 50071 assessed as growth inhibition; type: functional
[10] = test system: Schizosaccharomyces pombe; test: Antifungal activity against Schizosaccharomyces pombe DSM 70572 assessed as growth inhibition up to 66.6 ug/mL; type: functional, organism-based
Paenibacillus polymyxa [11] = test: Antibacterial activity against Paenibacillus polymyxa DSM 36 assessed as growth inhibition up to 66.6 ug/mL; type: functional
[12] = test system: Mycolicibacterium diernhoferi; test: Antibacterial activity against Mycobacterium diernhoferi DSM 43524 assessed as growth inhibition up to 66.6 ug/mL; type: functional, organism-based
[13] = Antifungal activity against Trichosporon oleaginosus DSM 11815 assessed as growth inhibition up to 66.6 ug/mL; type: functional; settings: Cutaneotrichosporon oleaginosum
Pseudomonas aeruginosa [14] = test: Antibacterial activity against Pseudomonas aeruginosa DSM 50071 assessed as growth inhibition up to 66.6 ug/mL; type: functional, organism-based
Candida albicans [15] = test: Antifungal activity against Candida albicans DSM 1665 assessed as growth inhibition up to 66.6 ug/mL; type: functional, organism-based
Wickerhamomyces anomalus [16] = test: Antifungal activity against Pichia anomala DSM 6766 assessed as growth inhibition up to 66.6 ug/mL; type: functional, organism-based
Nocardia sp. [17] = test: Antibacterial activity against Nocardia sp. DSM 43069 assessed as growth inhibition up to 66.6 ug/mL; type: functional, organism-based
L929 = test: Cytotoxicity against mouse L929 cells; type: cell-based
Eremothecium coryli [18] = test: Antifungal activity against Nematospora coryli DSM 6981 assessed as growth inhibition up to 66.6 ug/mL; type: functional, organism-based
Staphylococcus aureus [19] = test: Antibacterial activity against Staphylococcus aureus DSM 346 assessed as growth inhibition up to 66.6 ug/mL; type: functional, organism-based
Escherichia coli [20] = test: Antibacterial activity against Escherichia coli DSM 1116 assessed as growth inhibition up to 66.6 ug/mL; type: functional, organism-based
Rhodotorula glutinis [21] = test: Antifungal activity against Rhodotorula glutinis DSM 10134 assessed as growth inhibition up to 66.6 ug/mL; type: functional, organism-based
[22] = Antifungal activity against Penicillium capsulatum DSM 2210 assessed as growth inhibition up to 66.6 ug/mL; type: functional
Micrococcus luteus [23] = test: Antibacterial activity against Micrococcus luteus DSM 20030 assessed as growth inhibition up to 66.6 ug/mL; type: functional, organism-based; settings: NCTC 2665
Amorphotheca resinae [24] = test: Antifungal activity against Hormoconis resinae DSM 1203 assessed as growth inhibition up to 66.6 ug/mL; type: functional, organism-based
Pimelobacter simplex [25] = test: Antibacterial activity against Nocardioides simplex DSM 20130 assessed as growth inhibition up to 66.6 ug/mL; type: functional
Mucor hiemalis = test: Antifungal activity against Mucor hiemalis DSM 2656 assessed as growth inhibition; type: functional
Aspergillus clavatus [26] = test: Antifungal activity against Aspergillus clavatus DSM 816 assessed as growth inhibition up to 66.6 ug/mL; type: functional, organism-based
Eremothecium coryli [27] = test: Antifungal activity against Nematospora coryli DSM 6981 assessed as growth inhibition; type: functional
[28] = test system: Schizosaccharomyces pombe; test: Antifungal activity against Schizosaccharomyces pombe DSM 70572 assessed as growth inhibition; type: functional
[29] = Antifungal activity against Trichosporon oleaginosus DSM 11815 assessed as growth inhibition; type: functional; settings: Cutaneotrichosporon oleaginosum
Amorphotheca resinae [30] = test: Antifungal activity against Hormoconis resinae DSM 1203 assessed as growth inhibition; type: functional
Rhodotorula glutinis [31] = test: Antifungal activity against Rhodotorula glutinis DSM 10134 assessed as growth inhibition; type: functional
Aspergillus clavatus [32] = test: Antifungal activity against Aspergillus clavatus DSM 816 assessed as growth inhibition; type: functional
[33] = Antifungal activity against Penicillium capsulatum DSM 2210 assessed as growth inhibition; type: functional
Candida albicans [34] = test: Antifungal activity against Candida albicans DSM 1665 assessed as growth inhibition; type: functional, organism-based
Wickerhamomyces anomalus [35] = test: Antifungal activity against Pichia anomala DSM 6766 assessed as growth inhibition; type: functional, organism-based

Compound | MIC [1] [µg/mL] | MIC (Nocardia sp. [3]) [µg/mL] | MIC (Pimelobacter simplex [7]) [µg/mL] | MIC (Pseudomonas aeruginosa [9]) [µg/mL] | growth inhibition (GI) (Paenibacillus polymyxa [11]) | growth inhibition (GI) [12] | growth inhibition (GI) (Candida albicans [15]) | growth inhibition (GI) (Wickerhamomyces anomalus [16]) | IC50 (L929) [µM] | growth inhibition (GI) (Staphylococcus aureus [19]) | growth inhibition (GI) (Escherichia coli [20]) | growth inhibition (GI) [22] | growth inhibition (GI) (Micrococcus luteus [23]) | MIC (Mucor hiemalis) [µg/mL] | MIC (Eremothecium coryli [27]) [µg/mL] | MIC [28] [µg/mL] | MIC [29] [µg/mL] | MIC (Amorphotheca resinae [30]) [µg/mL] | MIC (Rhodotorula glutinis [31]) [µg/mL] | MIC (Aspergillus clavatus [32]) [µg/mL] | further results
CN(C)[C@@H]1C(O)=C(C(N)=O)C(=O)[C@@]2(O)C(O)=C3C(=O)c4c(O)cccc4[C@@](C)(O)[C@H]3[C@H](O)[C@@H]12.Cl [OXYTETRACYCLINE HYDROCHLORIDE] | 1 | 0.25 | 16.6 |  |  |  |  |  |  |  |  |  |  |  |  |  |  |  |  |  | MIC (Micrococcus luteus [2]): 2.1 µg/mL; MIC (Escherichia coli [4]): 1 µg/mL; MIC (Staphylococcus aureus [5]): ≤ 0.25 µg/mL; MIC [6]: ≤ 0.25 µg/mL; MIC (Paenibacillus polymyxa [8]): 6.7 µg/mL
GENTAMICIN |  |  |  | 67 |  |  |  |  |  |  |  |  |  |  |  |  |  |  |  |  | 
O=C1O[C@H](C#CCCl)Cc2ccccc21 | 33.3 (≈ 151 µM) |  |  |  | inactive | inactive | inactive | inactive | 14 | inactive | inactive | inactive | inactive | 33.3 (≈ 151 µM) |  |  |  |  |  |  | growth inhibition (GI) [10]: inactive; growth inhibition (GI) [13]: inactive; growth inhibition (GI) (Pseudomonas aeruginosa [14]): inactive; growth inhibition (GI) (Nocardia sp. [17]): inactive; growth inhibition (GI) (Eremothecium coryli [18]): inactive; growth inhibition (GI) (Rhodotorula glutinis [21]): inactive; growth inhibition (GI) (Amorphotheca resinae [24]): inactive; growth inhibition (GI) (Pimelobacter simplex [25]): inactive; growth inhibition (GI) (Aspergillus clavatus [26]): inactive
O=c1oc(C#CCCl)cc2ccccc12 | 33.3 (≈ 152 µM) | 67 (≈ 306 µM) | 33.3 (≈ 152 µM) | 67 (≈ 306 µM) | inactive | inactive | inactive | inactive | 3.7 | inactive | inactive | inactive | inactive | 16.6 (≈ 75.9 µM) | 16.6 (≈ 75.9 µM) | 16.6 (≈ 75.9 µM) | 33.3 (≈ 152 µM) | 33.3 (≈ 152 µM) | 33.3 (≈ 152 µM) | 16.6 (≈ 75.9 µM) | 
NYSTATIN |  |  |  |  |  |  |  |  |  |  |  |  |  | 2.1 | 3.3 | 33.3 | 1 | < 0.25 | 0.52 | 2.1 | MIC [33]: 16.6 µg/mL; MIC (Candida albicans [34]): 4.2 µg/mL; MIC (Wickerhamomyces anomalus [35]): 4.2 µg/mL
